Results reported in patent publication US11020360B2, “Methods, compounds, compositions and vehicles for delivering 3-amino-1-propanesulfonic acid” (Bellus Health, Inc., priority 2006, dated 2021).
Several values for one entry are separate records, joined by “and”; a condition that tells them apart may be missing. Identical values can stand only once. Counter-ions that a name gives are not always drawn.

How the values were obtained:
[1] = Metabolic profiling of 14C-3APS in mice; type: in vivo, male CD-1 mice
Experimental: (§1) Three single dose studies were conducted in mice, rats and dogs to determine the metabolic profile of ^14C-3APS in plasma, urine and feces. In the first study, twenty-seven male CD-1 mice received a single dose of 100 mg/kg (20 μCi/animal) of ^14C-3APS by oral gavage. Blood samples (3 animals/time point) were collected for 12 hr following drug administration while urine and feces (3 animals/time point) samples were collected for 96 hr. In the second study, eight male Sprague-Dawley rats received a single dose of 100 mg/kg (50 μCi/animal) of ^14C-3APS by oral gavage while in the third study, three male Beagle dogs received a single dose of 100 mg/kg (30 μCi/kg) of ^14C-3APS by oral gavage. For the rat and dog studies, blood samples were collected for 24 hr following drug administration while urine and feces samples were collected for 72 hr. All samples were analyzed for total radioactivity using appropriate sample preparation procedures and scintillation counting. Plasma and urine samples were also analyzed for 3APS and 3APS metabolites (2-carboxyethanesulfonic acid, 3-hydroxy-1-propanesulfonic acid and 3-acetylamino-1-propanesulfonic acid) concentrations using qualified HPLC and MS/MS methods.

[2] = Metabolic profiling of 14C-3APS in rats; type: in vivo, male Sprague-Dawley rats
Experimental: as §1

[3] = Metabolic profiling of 14C-3APS in dogs; type: in vivo, male Beagle dogs
Experimental: as §1

[4] = Absorption, excretion and plasma kinetics of 14C-3APS in humans; type: in vivo, human
Description: Following the identification of 3APS metabolites, plasma and urine samples from this human AME study were reanalyzed for 3APS and 3APS metabolite (2-carboxyethanesulfonic acid, 3-hydroxy-1-propanesulfonic acid and 3-acetylamino-1-propanesulfonic acid) concentrations using qualified HPLC and MS/MS methods to determine the metabolic profile of ^14C-3APS in human.

[5] = Single oral and IV administration of 14C-3APS to rats; type: in vivo, male Sprague-Dawley rats; details: for AUC0-∞ / AUC(0-inf): 100 mg/kg 14C-3APS, rats, 100 mg/kg; for AUC(0-inf): male, Sprague-Dawley, rat, plasma
Experimental: The purpose of this study was to investigate the absorption, metabolism and excretion profiles of ^14C-3APS following a single intravenous bolus and oral administration to rats. Thirty-six male Sprague-Dawley rats received a single 100 mg/kg (˜50 μCi/animal) dose of ^14C-3APS by an IV bolus injection (water or isotonic saline solution) and an additional 36 male rats received the same dose level by oral gavage (in water). Blood, urine, feces, brain and CSF samples were collected for up to 72 hr following dose administration. Plasma, urine, brain and CSF concentrations of 3APS and 2-carboxyethanesulfonic acid (3APS major metabolite) were measured using LC and MS/MS detection method. Plasma, urine, feces, brain and CSF samples were analyzed for total radioactivity using appropriate sample preparation procedures and scintillation counting.

[6] = Mouse whole blood stability; type: in vitro ADME; details: 37° C.
Experimental: (§2) Test compounds were incubated for a total of 240 minutes at 37° C. in whole mouse and whole human blood. The compounds were added at time-point 0 and sample aliquots were withdrawn at each time point (usually 0, 60 and 240 minutes). The samples were extracted using protein precipitation. Analysis of extracted samples was achieved using HPLC with MS detection. Several types of HPLC columns and mobile phase were used depending of the polarity of the compound. The compound stability was determined by the % of compound remaining at 240 minutes (peak response of compound at 240 minutes/peak response at 0 minutes×100).

[7] = Bioavailability of exemplary compounds in mice (3APS quantified in plasma); type: in vivo; details: compared with 3APS
Experimental: Selected exemplary compounds were tested for bioavailability in mice. Bioavailability estimates are performed for 3APS after administration of molar equivalent the selected compounds. […] The animals are anesthetized with isoflurane before blood collection (approximately 45 sec). Samples are collected at 5, 30, 60, 120, 180, 240 and 360 min post intravenous administration and at 15, 30, 60, 120, 180, 240 and 360 min post oral administration. One animal is used to obtain a baseline sample (pre-dose sample). Blood samples are collected into Sarstedt™ micro tubes (EDTA KE/1.3 ml), kept on ice until centrifugation at 4° C. at a minimum speed of 3000 rpm (1620 G) for 10 min. Plasma samples are transferred into Eppendorf™ tubes, immediately placed on dry ice and stored at −80° C. Plasma samples are stored frozen at […] pending analysis.
Compounds in mouse plasma are extracted using protein precipitation. Quantitation of 3APS in mouse plasma matrix is achieved using LC-MS detection. Sample concentration is calculated using a calibration curve.

[8] = PK brain and plasma levels of oral Compound A2 and 3-APS in mice; type: in vivo; details: oral 0.18 mmol/kg
Experimental: Compounds A2 and 3-aminopropanesulfonic acid were tested for pharmacokinetic parameters in mice. Parmacokinetic parameters (Cmax, Tmax, T½, AUC) are evaluated for 3APS after administration of a molar equivalent of each compound. Blood samples (approximately 1 ml) and brain samples are collected from each of 3 animals at time points 5, 15, 30 minutes, 1, 2, 4, 6, 12, and 24 hours. […] A 2-fold increase in plasma concentration (Cmax) of 3-APS was observed when orally administering Compound A2 compared to 3-APS.

[9] = Human whole blood stability; type: in vitro ADME; details: 37° C.
Experimental: as §2

[10] = Stability in water, at pH 1.5 and PBS; type: physicochemical; details: 37° C., 60 min
Experimental: Stability of exemplary compounds was determined in water, aqueous acidic solution (pH 1.5, HCl) and PBS (phosphate buffered saline) solution using ESI-MS (electrospray ionization mass spectrometry) as the detecting instruments. In general a 2 μg/mL pro-drug solution containing 1 μg/ml IS (internal standard) was prepared and incubated for 60 min. For water stability the incubation was performed at room temperature and for stability in acidic solution and in buffer. The incubation temperature was 37° C. Samples were analyzed for prodrug content at time points 0 and 60 min. using MS. The % changes in peak area ratio after 60 minutes for each test compound tested are calculated using the average values from six replicate runs. The compounds tested included Compounds A1 to A19, Compounds B5 and B6 and Compounds C1 to C26. Except for C26 which was found unstable at pH 1.5 and in PBS, all other compounds were judged to be stable under all conditions tested with less than about 15%-20% concentration change after 60 minutes.

[11] = tested on: primary rat neuron culture; assay: In vitro metabolism of 3APS in primary rat neuron culture; type: in vitro ADME; details: primary neuron culture media
Experimental: The metabolism of 3APS was also studied in vitro in different types of cellular models. In some cases, the metabolism of 3APS was compared with that of γ-amino butyric acid (GABA).
The conversion of 3APS to 2-carboxyethanesulfonic acid was time-dependent and cell concentration-dependent. Incubation of 3APS (400 μM initial concentration) for six days in the cell culture media (containing 800,000 cells) produced with 48 μM of 2-carboxyethanesulfonic acid. Under the same experimental conditions, 5.4 μM succinic acid was detected starting from GABA (400 μM initial concentration).

[12] = Mouse plasma, analyte after single oral 100 mg/kg 14C-3APS
[13] = male, CD-1, mouse, plasma, po, 100 mg/kg, Mouse plasma, analyte after single oral 100 mg/kg 14C-3APS
[14] = Rat plasma, analyte after single oral 100 mg/kg 14C-3APS
[15] = male, Sprague-Dawley, rat, plasma, po, 100 mg/kg, Rat plasma, analyte after single oral 100 mg/kg 14C-3APS
[16] = IV, individual animals 1001-1004
[17] = PO, individual animals 3001-3004
[18] = Mouse plasma, single oral 100 mg/kg 14C-3APS
[19] = Rat plasma, single oral 100 mg/kg 14C-3APS
[20] = Dog plasma, single oral 100 mg/kg 14C-3APS

O=C(O)CCS(=O)(=O)O [2-carboxyethanesulfonic acid]
AUC0-τ [1, 12]: 7.26 µmol·min/mL | AUC∞ [1, 12]: 7.56 µmol·min/mL | % of Total Radioactivity, Plasma ([1]; Mouse, AUC0-∞ analyte/AUC total radioactivity, single oral 100 mg/kg 14C-3APS): 30% | % of Total Radioactivity, Urine ([1]; Mouse, amount excreted, single oral 100 mg/kg 14C-3APS, 100 mg/kg): 62% | Tmax [1, 13]: 2 h | half-life [1, 13]: ~2 h | Cmax ([1]; male, CD-1, Mouse plasma, analyte (3APS or metabolite) after single oral 100 mg/kg 14C-3APS): 18 µM | AUC0-τ [2, 14]: 12.7 µmol·min/mL | AUC∞ [2, 14]: 13.6 µmol·min/mL | T1/2 ([2]; Rat plasma, analyte after single oral 100 mg/kg 14C-3APS, 100 mg/kg): 3.99 h | % of Total Radioactivity, Plasma ([2]; Rat, AUC0-∞ analyte/AUC total radioactivity, single oral 100 mg/kg 14C-3APS): 30% | % of Total Radioactivity, Urine ([2]; Rat, amount excreted, single oral 100 mg/kg 14C-3APS): 62% | Tmax [2, 15]: 4 h | half-life [2, 15]: ~4 h | Cmax ([2]; male, Sprague-Dawley, Rat plasma, analyte (3APS or metabolite) after single oral 100 mg/kg 14C-3APS): 23.4 µM | AUC0-τ ([3]; Dog plasma, analyte after single oral 100 mg/kg 14C-3APS): 30.5 µmol·min/mL | % of Total Radioactivity, Urine ([3]; Dog, amount excreted, single oral 100 mg/kg 14C-3APS, 100 mg/kg): 77% | Tmax ([3]; male, Beagle, dog, plasma, po, 100 mg/kg, Dog plasma, analyte after single oral 100 mg/kg 14C-3APS): 12 h | Cmax ([3]; male, Beagle, Dog plasma, analyte (3APS or metabolite) after single oral 100 mg/kg 14C-3APS): 31.2 µM | time of maximum plasma concentration ([4]; healthy subjects, analyte after oral 14C-3APS): 6.5 h | % of total radioactivity in plasma based on AUC0-τ ([4]; healthy subjects, oral 14C-3APS): 49% | % of total amount of radioactivity excreted in urine ([4]; human urine): 79% | AUC0-∞ [5, 16]: 144 µM·h and 184 µM·h and 125 µM·h | % of total radioactivity (AUC0-∞ analyte/AUC total radioactivity) [5, 16]: 6.5% and 9.1% and 9.8% and 9.9% | AUC0-∞ [5, 17]: 153 µM·h and 177 µM·h and 229 µM·h | % of total radioactivity (AUC0-∞ analyte/AUC total radioactivity) [5, 17]: 26.5% and 21.4% and 28.2% and 29.3% | AUC(0-inf) ([5]; iv, Mean): 140 µM·h | AUC(0-inf) ([5]; iv, individual animals 1001-1004): 105 µM·h | AUC(0-inf) ([5]; po, Mean): 198 µM·h | AUC(0-inf) ([5]; po, individual animals 3001-3004): 232 µM·h

CC(C)[C@H](N)C(=O)NCCCS(=O)(=O)O [Compound A2]
Blood stability (% of compound remaining after 240 min.) Mouse Blood [6]: ++ (++: 30-75%) | effect on bioavailability of 3APS [7]: increasing the bioavailability of 3APS | Brain concentration of 3-APS [8]: observed

NCCCC[C@H](N)C(=O)NCCCS(=O)(=O)O [Compound A4]
Blood stability (% of compound remaining after 240 min.) Mouse Blood [6]: +++ (+++: >75%) | Blood stability (% of compound remaining after 240 min.) Human Blood [9]: + (+: <30%) | effect on bioavailability of 3APS [7]: increasing the bioavailability of 3APS

N[C@@H](CO)C(=O)NCCCS(=O)(=O)O [Compound A7]
Blood stability (% of compound remaining after 240 min.) Mouse Blood [6]: +++ (+++: >75%) | Blood stability (% of compound remaining after 240 min.) Human Blood [9]: +++ (+++: >75%) | effect on bioavailability of 3APS [7]: increasing the bioavailability of 3APS

N[C@@H](COCc1ccccc1)C(=O)NCCCS(=O)(=O)O [Compound A18]
Blood stability (% of compound remaining after 240 min.) Mouse Blood [6]: + (+: <30%) | Blood stability (% of compound remaining after 240 min.) Human Blood [9]: + (+: <30%) | effect on bioavailability of 3APS [7]: increasing the bioavailability of 3APS

Cc1oc(=O)oc1COC(=O)NCCCS(=O)(=O)O [Compound C26, 3-({[(5-methyl-2-oxo-1,3-dioxol-4-yl)methoxy]carbonyl}amino)-1-propanesulfonic Acid Sodium Salt]
Stability in PBS [10]: unstable | Stability in aqueous acidic solution (pH 1.5, HCl) [10]: unstable

O=C(CCNNC(=O)c1ccncc1)NCc1ccccc1 [Nialamide]
effect on the conversion of 3APS to 2-carboxyethanesulfonic acid [11]: reduced the formation of 2-carboxyethanesulfonic acid (from 3APS) but to a lesser extent

NCCCS(=O)(=O)O [^14C-3APS]
Total Radioactivity AUC0-τ [1, 18]: 24.4 μmol eq · min/mL | Total Radioactivity AUC∞ [1, 18]: 25.0 μmol eq · min/mL | % of the dose excreted in urine as total radioactivity ([1]; mouse, on average in all species): 60% | Total Radioactivity AUC0-τ [2, 19]: 43.3 μmol eq · min/mL | Total Radioactivity AUC∞ [2, 19]: 45.2 μmol eq · min/mL | % of the dose excreted in urine as total radioactivity ([2]; rat, on average in all species): 60% | Total Radioactivity AUC0-τ [3, 20]: 45.4 μmol eq · min/mL | Total Radioactivity AUC∞ [3, 20]: 108 μmol eq · min/mL | % of the dose excreted in urine as total radioactivity ([3]; dog, on average in all species): 60% | AUC0-∞ Total Radioactivity ([5]; IV, Mean): 1591 nmol eq · h/mL | AUC0-∞ Total Radioactivity [5, 16]: 1625 nmol eq · h/mL and 1588 nmol eq · h/mL and 1883 nmol eq · h/mL and 1266 nmol eq · h/mL | AUC0-∞ Total Radioactivity ([5]; PO, Mean): 749 nmol eq · h/mL | AUC0-∞ Total Radioactivity [5, 17]: 874 nmol eq · h/mL and 714 nmol eq · h/mL and 628 nmol eq · h/mL and 781 nmol eq · h/mL

NCC1(CC(=O)O)CCCCC1 [gabapentin]
effect on the conversion of 3APS to 2-carboxyethanesulfonic acid [11]: no significant effect

C=CC(N)CCC(=O)O (stereo not drawn) [vigabatrin]
effect on the conversion of 3APS to 2-carboxyethanesulfonic acid [11]: significantly inhibited
